Patent publication US12637471B2, “Heterocyclic compounds, compositions, methods of preparation and uses thereof” (Organon R&D Finland Ltd, priority 2021, dated 2026)

Experiments:
Type in all cases: biochemical
[1] = molecular target: T1, Recombinant human aldo-keto reductase family 1 member C2 (AKR1C2) protein (Homo sapiens, UniProt P52895); test: Inhibition of the aldo-keto reductase family 1 member C2, 3H-dihydrotestosterone conversion; conditions: inhibitor at 10 μM
T1 construct: made in house; host or cells: Sf-9 insect cells (baculovirus)
T1 sequence (P52895 1-323): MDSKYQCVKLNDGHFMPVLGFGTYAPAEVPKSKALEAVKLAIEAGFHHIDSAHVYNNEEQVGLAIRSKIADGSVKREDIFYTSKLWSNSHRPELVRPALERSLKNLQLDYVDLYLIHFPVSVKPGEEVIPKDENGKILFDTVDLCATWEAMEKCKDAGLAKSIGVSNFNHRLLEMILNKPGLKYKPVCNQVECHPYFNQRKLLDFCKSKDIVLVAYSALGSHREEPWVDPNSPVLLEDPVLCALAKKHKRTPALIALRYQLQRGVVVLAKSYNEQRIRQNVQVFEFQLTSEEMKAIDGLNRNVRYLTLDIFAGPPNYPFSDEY
Protocol: Inhibition of the Aldo-Keto Reductase Family 1 Member C2
Recombinant human aldo-keto reductase family 1 member C2 (AKR1C2) protein (GenBank Accession No. NM_001354.6) produced in Sf-9 insect cells with baculovirus was used for screening. Recombinant protein (13.6 nM/0.5 μg/ml) was incubated in 20 mM KH2PO4 pH 7.4, 1 mM EDTA, complete protease inhibitor tablet, 1 mM NADPH with 6.25 nM ^3H-labelled dihydrotestosterone for 45 min at +37° C., in the presence of the potential inhibitor at 10 μM concentration. Inhibitor stock solutions were prepared in DMSO. Final concentration of DMSO was adjusted to 1% in all samples. The enzyme reaction was stopped by addition of 10% trichloroacetic acid (final concentration 1%). Samples were filtrated through […] filtration plate (Merck). Analyses of samples was done with Waters Acquity UPLC H-class equipped with XBridge C18 column and XBridge VanGuard C18 guard column. Acetonitrile: 0.1% formic acid in water (42/58 v/v) with flow of 1.2 ml/min was used for mobile phase. The eluent was mixed with scintillant and the radioactivity was monitored in the eluate by a Scintillation Analyser. The conversion percentage of triated substrate (dihydrotestosterone) to tritiated product (5α-androstane-3α,17β-diol) for each sample was determined by the relative percentages of substrate and product in the chromatogram. The inhibition percentages of samples were calculated using following formula: […]

[2] = molecular target: T2, 17β-Hydroxysteroid Dehydrogenase Type 2 Enzyme (17β-HSD2) (Homo sapiens, UniProt P37059); test: Inhibition of the 17β-hydroxysteroid dehydrogenase type 2 enzyme, 3H-testosterone conversion; conditions: inhibitor at 10 μM
T2 construct: made in house; host or cells: Sf-9 insect cells (baculovirus)
T2 sequence (P37059 1-387): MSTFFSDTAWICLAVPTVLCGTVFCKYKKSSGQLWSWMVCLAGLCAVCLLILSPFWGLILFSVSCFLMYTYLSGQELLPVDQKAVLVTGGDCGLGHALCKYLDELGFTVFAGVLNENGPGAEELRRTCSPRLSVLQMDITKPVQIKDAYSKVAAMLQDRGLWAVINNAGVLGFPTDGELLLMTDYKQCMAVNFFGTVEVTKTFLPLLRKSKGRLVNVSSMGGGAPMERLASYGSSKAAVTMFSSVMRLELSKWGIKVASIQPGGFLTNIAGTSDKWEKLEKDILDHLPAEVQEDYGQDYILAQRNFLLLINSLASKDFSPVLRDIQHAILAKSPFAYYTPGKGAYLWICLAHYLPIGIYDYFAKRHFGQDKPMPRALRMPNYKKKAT
Protocol: Inhibition of the 17β-Hydroxysteroid Dehydrogenase Type 2 Enzyme
Recombinant human 173-HSD2 protein (GenBank Accession No. NM_002153.3) produced in Sf-9 insect cells with baculovirus was used for screening.
Recombinant protein (105 nM/4.5 μg/ml) was incubated in 20 mM KH2PO4 pH 8.5, 1 mM EDTA, complete protease inhibitor cocktail, 1 mM NAD with 56.25 nM testosterone (including ^3H-labelled testosterone) for 30 min at RT, in the presence of the potential inhibitor at 10 μM concentration. Inhibitor stock solutions were prepared in DMSO. Final concentration of DMSO was adjusted to 1% in all samples. The enzyme reaction was stopped by addition of 10% trichloroacetic acid (final concentration 1%). Samples were filtrated through […] filtration plate. Analyses of samples was done with Waters Acquity UPLC H-class equipped with XBridge C18 column and XBridge VanGuard C18 guard column. Acetonitrile: 0.1% formic acid in water (42/58 v/v) with flow of 1.2 ml/min was used for mobile phase. The eluent was mixed with scintillant and the radioactivity was monitored in the eluate by a Scintillation Analyser. The conversion percentage of tritiated substrate (testosterone) to product tritiated (androstenedione) for each sample was determined by the relative percentages of substrate and product in the chromatogram. The inhibition percentages of samples were calculated using following formula: […]

[3] = molecular target: T3, Recombinant human AKR1C3 (17β-HSD5) protein (Homo sapiens, UniProt P42330); test: Inhibition of AKR1C3 (17β-hydroxysteroid dehydrogenase type 5) enzyme, fluorescence assay; conditions: inhibitor at 500 nM
T3 construct: made in house; host or cells: E. coli
T3 sequence (P42330 1-323): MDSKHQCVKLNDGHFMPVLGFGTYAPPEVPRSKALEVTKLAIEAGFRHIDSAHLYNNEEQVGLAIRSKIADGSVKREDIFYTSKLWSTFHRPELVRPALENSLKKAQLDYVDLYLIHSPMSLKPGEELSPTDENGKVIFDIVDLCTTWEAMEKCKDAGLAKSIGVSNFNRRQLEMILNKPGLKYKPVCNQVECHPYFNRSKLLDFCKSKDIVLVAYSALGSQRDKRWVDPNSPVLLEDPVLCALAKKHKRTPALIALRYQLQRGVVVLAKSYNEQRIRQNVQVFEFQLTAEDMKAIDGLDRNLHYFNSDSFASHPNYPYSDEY
Protocol: Inhibition of AKR1C3 (17β-Hydroxysteroid Dehydrogenase Type 5) Enzyme
Recombinant human AKR1C3 (17β-HSD5) protein (GenBank Accession No. NM_003739.6) produced in E. coli was used for screening. Recombinant protein (27 nM/1 μg/ml) was incubated in 20 mM KH2PO4, 1 mM EDTA, complete protease inhibitor cocktail, pH 7.4 with 1 μM 9-acetyl-2,3,6,7-tetrahydro-1H,5H,11H-pyrano[2,3-f]pyrido[3,2,1-ij]quinolin-11-one and 1 mM NADPH for 60 to 120 min at RT, in the presence of the potential inhibitor at 500 nM concentration. Inhibitor stock solutions were prepared in DMSO. Final concentration of DMSO was adjusted to 1% in all samples. The samples were analysed by fluorescent measurement with Tecan Spark microplate reader at wavelengths 420 nm for excitation and 510 nm for emission. Samples were evaluated against standards of 9-(1-hydroxyethyl)-2,3,6,7-tetrahydro-1H,5H,11H-pyrano[2,3-f]pyrido[3,2,1-ij]quinolin-11-one at concentrations 1 μM-10 nM. Background fluorescence was reduced from all the samples and standards. The concentrations of formed product were calculated from the standard curve with Tecan Spark Magellan software. The formed product concentrations were used to calculate conversion percentages. The inhibition percentages for the samples were calculated from the conversion percentages.
Inhibition percentages of samples were calculated using following formula: […]

inhibition at 10 µM [1]	inhibition at 10 µM [2]	inhibition at 0.5 µM [3]	SMILES
7%	-2%	95%	CN(C(=O)N1CCC(=C(C#N)c2ccc(Cl)cc2)CC1)C1COC1 [Compound 169, 4-((4-chlorophenyl)(cyano)methylene)-N-methyl-N-(oxetan-3-yl)piperidine-1-carboxamide]
29%	21%	103%	N#CC(=C1CCN(C(=O)N2CCc3[nH]ncc3C2)CC1)c1ccc(F)c(F)c1 [Compound 43, 2-(3,4-difluorophenyl)-2-(1-(4,5,6,7-tetrahydro-1H-pyrazolo[4,3-c]pyridine-5-carbonyl)piperidin-4-ylidene)acetonitrile]
29%	50%	99%	CCN(CC)C(=O)N1CCC(=C(C#N)c2ccc(Cl)s2)CC1 [Compound 173, 4-((5-chlorothiophen-2-yl)(cyano)methylene)-N,N-diethylpiperidine-1-carboxamide]
8%	27%	93%	CC(C)OC1CCN(C(=O)N2CCC(=C(C#N)c3cccc(Cl)c3)CC2)CC1 [Compound 139, 2-(3-chlorophenyl)-2-(1-(4-isopropoxypiperidine-1-carbonyl)piperidin-4-ylidene)acetonitrile]
11%	10%	96%	N#CC(=C1CCN(C(=O)N2CCC(O)CC2)CC1)c1ccc(F)cc1F [Compound 42, 2-(2,4-difluorophenyl)-2-(1-(4-hydroxypiperidine-1-carbonyl)piperidin-4-ylidene)acetonitrile]
0%	12%	97%	CC(=O)N1CCN(C(=O)N2CCC(=C(C#N)c3ccc(Cl)cc3)CC2)CC1 [Compound 130, 2-(1-(4-acetylpiperazine-1-carbonyl)piperidin-4-ylidene)-2-(4-chlorophenyl)acetonitrile]
19%	21%	92%	COCC1CCN(C(=O)N2CCC(=C(C#N)c3ccc(F)cc3F)CC2)CC1 [Compound 73, 2-(2,4-difluorophenyl)-2-(1-(4-(methoxymethyl)piperidine-1-carbonyl)piperidin-4-ylidene)acetonitrile]
6%	30%	96%	C[C@@H]1CCCCN1C(=O)N1CCC(=C(C#N)c2ccc(F)cc2)CC1 [Compound 110, (R)-2-(4-fluorophenyl)-2-(1-(2-methylpiperidine-1-carbonyl)piperidin-4-ylidene)acetonitrile]
24%	-2%	98%	N#CC(=C1CCN(C(=O)N2CCn3ncnc3C2)CC1)c1ccc(Cl)s1 [Compound 168, 2-(5-chlorothiophen-2-yl)-2-(1-(5,6,7,8-tetrahydro-[1,2,4]triazolo[1,5-a]pyrazine-7-carbonyl)piperidin-4-ylidene)acetonitrile]
8%	11%	96%	N#CC(=C1CCN(C(=O)N2CCc3[nH]cnc3C2)CC1)c1ccc(F)cc1 [Compound 24, 2-(4-fluorophenyl)-2-(1-(4,5,6,7-tetrahydro-1H-imidazo[4,5-c]pyridine-5-carbonyl)piperidin-4-ylidene)acetonitrile]
11%	3%	94%	CN(C(=O)N1CCC(=C(C#N)c2ccc(F)cc2)CC1)C1CCOCC1 [Compound 14, 4-(cyano(4-fluorophenyl)methylene)-N-methyl-N-(tetrahydro-2H-pyran-4-yl)piperidine-1-carboxamide]
11%	34%	97%	N#CC(=C1CCN(C(=O)N2CCc3sccc3C2)CC1)c1cccc2[nH]ncc12 [Compound 114, 2-(1H-indazol-4-yl)-2-(1-(4,5,6,7-tetrahydrothieno[3,2-c]pyridine-5-carbonyl)piperidin-4-ylidene)acetonitrile]
13%	3%	96%	N#CC(=C1CCN(C(=O)N2CCC(O)CC2)CC1)c1ccc(Cl)s1 [Compound 57, 2-(5-chlorothiophen-2-yl)-2-(1-(4-hydroxypiperidine-1-carbonyl)piperidin-4-ylidene)acetonitrile]
5%	22%	98%	Cn1ncc2cccc(C(C#N)=C3CCN(C(=O)N4CCn5cncc5C4)CC3)c21 [Compound 59, 2-(1-methyl-1H-indazol-7-yl)-2-(1-(5,6,7,8-tetrahydroimidazo[1,5-a]pyrazine-7-carbonyl)piperidin-4-ylidene)acetonitrile]
30%	17%	96%	N#CC(=C1CCN(C(=O)N2CCc3sccc3C2)CC1)c1ccc(F)cc1F [Compound 112, 2-(2,4-difluorophenyl)-2-(1-(4,5,6,7-tetrahydrothieno[3,2-c]pyridine-5-carbonyl)piperidin-4-ylidene)acetonitrile]
4%	9%	91%	CC(O)C1CCN(C(=O)N2CCC(=C(C#N)c3ccc(OC(F)(F)F)cc3)CC2)CC1 (stereo not drawn) [Compound 124, 2-(1-(4-(1-hydroxyethyl)piperidine-1-carbonyl)piperidin-4-ylidene)-2-(4-(trifluoromethoxy)phenyl)acetonitrile]
